The record followed here is ChEMBL document CHEMBL1201862, “PubChem BioAssay data set” (2004).

Among the test systems are UO-31; SW-620; SNB-75; Malme-3M; COLO 205; HL-60; IGROV-1; EKVX; SK-MEL-5; NCI-H23; UACC-62; NCI-H226; RPMI-8226; M14; SF-539; OVCAR-8; U-251; SK-MEL-28; SR.
Holding throughout (assay): inhibition of tumour cell growth, NCI panel, 48 h

Structures are written as SMILES.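 Where inhibition never reached the appropriate level, the endpoint shown equals the highest concentration tested. Otherwise, values were interpolated linearly from a five-concentration, 48-hour dose response in 96-well plates. Here, GI50 denotes the concentration required for 50% inhibition of growth.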 Activity calls are given as the source filed them. No stated cut-off is given here; in the data, active = GI50 up to about 1.1 µM and inactive = higher. A value given as a limit tells only on which side of the number the result lay.

For the compound `Cc1cccc(Cl)c1NC(N)=S`, the GI50 is 51.6 µM (inactive) in the experiment with UO-31; 16.6 µM (inactive) in the experiment with SW-620; 47.1 µM (inactive) in the experiment on SNB-75; 52 µM (inactive) with Malme-3M; > 100 µM (inactive) with COLO 205; 38.4 µM (inactive) in the experiment on HL-60. Further, the GI50 was 35.4 µM (inactive) with IGROV-1; 48.2 µM (inactive) with EKVX; > 100 µM (inactive) in the experiment with SK-MEL-5; 83 µM (inactive) in the experiment on NCI-H23; 69.7 µM (inactive) in the experiment on UACC-62; 82.8 µM (inactive) with NCI-H226. For the same compound, the GI50 in the experiment on RPMI-8226 is 19 µM (inactive); in the experiment with M14, 87.5 µM (inactive); in the experiment on SF-539 it was 33.7 µM (inactive); in the experiment with OVCAR-8, 25.8 µM (inactive); with U-251, 20.8 µM (inactive); in the experiment with SK-MEL-28, 55.1 µM (inactive).
For the compound `Cc1ccc2nc(/C(=C/c3ccc(/C=C(\NC(=O)c4ccccc4)c4nc5ccc(C)cc5[nH]4)c(C)c3)NC(=O)c3ccccc3)[nH]c2c1`, the GI50 with UO-31 is 9.12 µM (inactive); in the experiment on SR, 27.2 µM (inactive); with SW-620 it was 5.92 µM (inactive); in the experiment with SNB-75, 7.08 µM (inactive); in the experiment with Malme-3M it was 7.29 µM (inactive); in the experiment with COLO 205, 25.1 µM (inactive). The GI50 was 1.81 µM (inactive) with IGROV-1; 12.5 µM (inactive) in the experiment on EKVX; 1.91 µM (inactive) in the experiment with SK-MEL-5; 19.7 µM (inactive) with NCI-H23; 1.14 µM (inactive) with UACC-62; 26.4 µM (inactive) in the experiment with NCI-H226. Moreover, the GI50 is 16.6 µM (inactive) in the experiment with RPMI-8226; 23 µM (inactive) in the experiment on M14; 10.2 µM (inactive) in the experiment on SF-539; 7.01 µM (inactive) in the experiment on OVCAR-8; 22.7 µM (inactive) in the experiment with U-251; 25.2 µM (inactive) in the experiment on SK-MEL-28.
In the case of `COc1ccccc1NC(=O)CSC(N)=O`, the GI50 is 25.8 µM (inactive) in the experiment with SR; 32.2 µM (inactive) in the experiment with SW-620; 30 µM (inactive) with SNB-75; 43 µM (inactive) in the experiment with Malme-3M; > 100 µM (inactive) with COLO 205; 0.349 µM (active) in the experiment with HL-60. Besides, the GI50 in the experiment with IGROV-1 is 66.5 µM (inactive); with EKVX, 60.1 µM (inactive); in the experiment on SK-MEL-5, 47.8 µM (inactive); in the experiment with NCI-H23, 69.3 µM (inactive); in the experiment on UACC-62, 25.8 µM (inactive); with NCI-H226, 39.2 µM (inactive). The GI50 in the experiment on RPMI-8226 was 39.4 µM (inactive); in the experiment with M14, 45.4 µM (inactive); in the experiment on SF-539 it was 34 µM (inactive); in the experiment with OVCAR-8, 68.2 µM (inactive); with U-251, 25.6 µM (inactive); with SK-MEL-28, 48.1 µM (inactive).
For the compound `O=C1c2ccccc2OCC1/C=N/O` (stereo not given), the GI50 in the experiment on UO-31 was > 100 µM (inactive); with SW-620, > 100 µM (inactive); with SNB-75 it was > 100 µM (inactive); with Malme-3M it was > 100 µM (inactive); in the experiment with HL-60, > 100 µM (inactive); in the experiment with IGROV-1 it was 82.2 µM (inactive). Besides, the GI50 was 65.6 µM (inactive) in the experiment with EKVX; > 85.5 µM (inactive) in the experiment on SK-MEL-5; > 100 µM (inactive) in the experiment on NCI-H23; > 100 µM (inactive) in the experiment with UACC-62; > 100 µM (inactive) with NCI-H226; > 100 µM (inactive) in the experiment on RPMI-8226. In addition, the GI50 in the experiment with SF-539 is 76 µM (inactive); in the experiment on OVCAR-8 it was > 100 µM (inactive); in the experiment with U-251, > 100 µM (inactive); in the experiment on SK-MEL-28, 51.6 µM (inactive).
Take `CCCCCCCC(=O)OC(COC(=O)Cc1ccccc1)COC(=O)C(C)(C)C` (stereo not given): the GI50 is > 100 µM (inactive) in the experiment on UO-31; 64 µM (inactive) with SR; > 100 µM (inactive) with SW-620; > 100 µM (inactive) with Malme-3M; 46.3 µM (inactive) with COLO 205; 51.6 µM (inactive) with HL-60. For the same compound, the GI50 with IGROV-1 is > 100 µM (inactive); with SK-MEL-5, 74 µM (inactive); with NCI-H23, > 100 µM (inactive); with UACC-62, > 100 µM (inactive); in the experiment with NCI-H226 it was > 100 µM (inactive); in the experiment on RPMI-8226 it was > 100 µM (inactive). The GI50 in the experiment on M14, in the experiment with OVCAR-8, with U-251 and in the experiment on SK-MEL-28 was > 100 µM (inactive) throughout.
On to `O=C(NCCO)c1cc2c(cn1)[nH]c1ccccc12`, for which the GI50 with UO-31 was > 100 µM (inactive); in the experiment with SW-620, > 100 µM (inactive); in the experiment on SNB-75, 69.5 µM (inactive); in the experiment with Malme-3M, 22.1 µM (inactive); in the experiment on COLO 205, > 100 µM (inactive); in the experiment on HL-60 it was > 100 µM (inactive). For the same compound, the GI50 in the experiment with IGROV-1, in the experiment with EKVX, in the experiment on SK-MEL-5, with NCI-H23, with UACC-62 and in the experiment with NCI-H226 was > 100 µM (inactive) each time. Besides, the GI50 in the experiment on RPMI-8226, in the experiment with M14, in the experiment with SF-539, in the experiment with OVCAR-8, in the experiment with U-251 and in the experiment with SK-MEL-28 was > 100 µM (inactive) in each case.
In the case of `O=C(/N=C(/Nc1ccccc1)SCS/C(=N\C(=O)c1ccco1)Nc1ccccc1)c1ccco1`, the GI50 was 44.8 µM (inactive) in the experiment with UO-31; > 100 µM (inactive) in the experiment with SW-620; 16.9 µM (inactive) in the experiment with SNB-75; > 100 µM (inactive) in the experiment with Malme-3M; > 100 µM (inactive) in the experiment on COLO 205; 63.4 µM (inactive) in the experiment with IGROV-1. In addition, the GI50 in the experiment with EKVX is 33.9 µM (inactive); in the experiment on SK-MEL-5 it was 61.5 µM (inactive); in the experiment with NCI-H23, 24.4 µM (inactive); with UACC-62 it was > 100 µM (inactive); in the experiment on NCI-H226 it was 28 µM (inactive); with RPMI-8226, > 100 µM (inactive). Also, the GI50 in the experiment on M14 was > 100 µM (inactive); in the experiment on SF-539, 23.2 µM (inactive); with OVCAR-8, 50.6 µM (inactive); in the experiment on U-251, 32 µM (inactive); in the experiment with SK-MEL-28, > 100 µM (inactive).
As to `CN(C)CCC1(C2=CCCC2)CC/C(=C\c2ccc3c(c2)OCO3)C1=O` (stereo not given), the GI50 in the experiment on UO-31 is 7.52 µM (inactive); with SW-620, 15.8 µM (inactive); in the experiment on Malme-3M, 15.6 µM (inactive); with COLO 205 it was 18.7 µM (inactive); in the experiment on HL-60, 14.3 µM (inactive); in the experiment with IGROV-1, > 10 µM (inactive). Besides, the GI50 is 15.8 µM (inactive) in the experiment with EKVX; 14.1 µM (inactive) in the experiment on SK-MEL-5; 18.4 µM (inactive) in the experiment with NCI-H23; 21.5 µM (inactive) in the experiment with UACC-62; 23.7 µM (inactive) in the experiment on RPMI-8226; 14.7 µM (inactive) in the experiment on M14. Further, the GI50 with SF-539 is 16 µM (inactive); in the experiment on OVCAR-8 it was 15.6 µM (inactive); with U-251 it was 15.6 µM (inactive); in the experiment on SK-MEL-28 it was 14.3 µM (inactive).
In the case of `O=c1cccccc1NCCOCCNc1cccccc1=O`, the GI50 in the experiment with UO-31 is > 100 µM (inactive); in the experiment on SW-620, > 100 µM (inactive); in the experiment on SNB-75 it was 16.9 µM (inactive); in the experiment on Malme-3M, > 100 µM (inactive); in the experiment on COLO 205 it was > 100 µM (inactive); with HL-60 it was > 100 µM (inactive). The GI50 with IGROV-1, in the experiment on EKVX, in the experiment on SK-MEL-5, in the experiment with NCI-H23, in the experiment on UACC-62 and in the experiment on NCI-H226 was > 100 µM (inactive) throughout. In addition, the GI50 in the experiment on RPMI-8226, with M14, with OVCAR-8, in the experiment on U-251 and with SK-MEL-28 was > 100 µM (inactive) in each case.
On to `Cn1cc(NC(=O)c2cc(NC(=O)CCCCCCCC(=O)Nc3cc(C(=O)Nc4cc(C(=O)NCCC(=N)N)n(C)c4)n(C)c3)cn2C)cc1C(=O)NCCC(=N)N`, for which the GI50 in the experiment with UO-31 is > 100 µM (inactive); in the experiment with SR it was 5.26 µM (inactive); in the experiment with SW-620, 32.7 µM (inactive); in the experiment on SNB-75, 35.2 µM (inactive); with Malme-3M, 5.75 µM (inactive); with COLO 205, 13.2 µM (inactive). In addition, the GI50 with HL-60 is 3.15 µM (inactive); in the experiment on IGROV-1, 5.82 µM (inactive); with EKVX, 22 µM (inactive); in the experiment with SK-MEL-5, 7.53 µM (inactive); in the experiment on NCI-H23, 17.3 µM (inactive); in the experiment on UACC-62 it was 15.7 µM (inactive). Moreover, the GI50 with M14 was 27.9 µM (inactive); with SF-539, 17.7 µM (inactive); in the experiment with OVCAR-8, 19.1 µM (inactive); with U-251 it was 17.2 µM (inactive); in the experiment with SK-MEL-28 it was 11.7 µM (inactive).
For the compound `C=C(C)C(=O)OC1C/C(CO)=C\C(O)C/C(C)=C/C2OC(=O)C(=C)C21` (stereo not given), the GI50 in the experiment with UO-31 was > 100 µM (inactive); in the experiment on SR, 19.9 µM (inactive); in the experiment with SW-620 it was 16.7 µM (inactive); with SNB-75 it was 32.4 µM (inactive); with Malme-3M, 20.6 µM (inactive); in the experiment on COLO 205 it was 17.1 µM (inactive). For the same compound, the GI50 with IGROV-1 was 48.4 µM (inactive); in the experiment on EKVX, 25.2 µM (inactive); with SK-MEL-5, 21 µM (inactive); with NCI-H23, > 10 µM (inactive); in the experiment with UACC-62, 19.9 µM (inactive); in the experiment on NCI-H226, 27.8 µM (inactive). Besides, the GI50 with RPMI-8226 was 17.3 µM (inactive); with M14, 17.7 µM (inactive); in the experiment on SF-539, 21 µM (inactive); with OVCAR-8, 20.3 µM (inactive); with U-251 it was > 100 µM (inactive); in the experiment with SK-MEL-28 it was 17.3 µM (inactive).
For `CC1=C2C(O)C(C(C)C(=O)NCC(C)C)CCC2(C)C=CC1=O` (stereo not given), the GI50 in the experiment with UO-31, in the experiment on SW-620, with SNB-75, with COLO 205, with HL-60 and in the experiment on IGROV-1 was > 100 µM (inactive) in each case. The GI50 in the experiment with EKVX, in the experiment with SK-MEL-5, in the experiment on NCI-H23, with UACC-62, with NCI-H226 and in the experiment with RPMI-8226 was > 100 µM (inactive) in each case. Besides, the GI50 in the experiment with SF-539, with OVCAR-8, with U-251 and with SK-MEL-28 was > 100 µM (inactive) each time.
